From patent US7825132B2, “Inhibition of FGFR3 and treatment of multiple myeloma” (Novartis Vaccines and Diagnostics, Inc., priority 2002, dated 2010)
Where two headings read alike, the source gives them in different places.

Key:
[1] = test system: cancer and primary cell lines; assay: antiproliferative activity, MTS assay, 27 cancer and primary cell lines (Table 6); type: cell-based; settings: Homo sapiens, 26 out of the 27 cell lines, 72 hours
Procedure: . […] The EC50 values were calculated using nonlinear regression. […]

CYP2C9 = CYP2C9 (Homo sapiens, UniProt P11712); assay: Inhibition of cDNA derived CYP isozymes; type: in vitro ADME; settings: cDNA-derived (recombinant) CYP2C9
Source text: (§1) The compound was stable in human liver microsomes. […].

CYP1A2 = biological target: T1, CYP1A2 (Homo sapiens, UniProt P05177); assay: Inhibition of cDNA derived CYP isozymes; type: in vitro ADME; settings: cDNA-derived (recombinant) CYP1A2
T1 sequence (P05177 1-516): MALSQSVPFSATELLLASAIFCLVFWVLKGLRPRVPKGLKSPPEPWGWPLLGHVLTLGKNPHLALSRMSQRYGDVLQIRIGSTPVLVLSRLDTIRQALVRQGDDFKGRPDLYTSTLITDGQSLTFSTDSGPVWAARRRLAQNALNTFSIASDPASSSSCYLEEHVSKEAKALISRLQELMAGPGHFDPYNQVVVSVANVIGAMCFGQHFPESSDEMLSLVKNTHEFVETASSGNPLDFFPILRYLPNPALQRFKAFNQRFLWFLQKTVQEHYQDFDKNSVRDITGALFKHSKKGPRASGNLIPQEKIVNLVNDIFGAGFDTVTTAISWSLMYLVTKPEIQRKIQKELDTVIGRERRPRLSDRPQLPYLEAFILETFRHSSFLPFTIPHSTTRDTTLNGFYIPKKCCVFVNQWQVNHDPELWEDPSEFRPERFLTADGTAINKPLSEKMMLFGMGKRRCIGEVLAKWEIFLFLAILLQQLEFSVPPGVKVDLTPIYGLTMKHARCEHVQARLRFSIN
Source text: as §1

CYP3A4 = CYP3A4 (Homo sapiens, UniProt P08684); assay: Inhibition of cDNA derived CYP isozymes; type: in vitro ADME; settings: cDNA-derived (recombinant) CYP3A4
Source text: as §1

CYP2D6 = CYP2D6 (Homo sapiens, UniProt P10635); assay: Inhibition of cDNA derived CYP isozymes; type: in vitro ADME; settings: cDNA-derived (recombinant) CYP2D6
[2] = test system: FGF-2 supplemented Matrigel neovascularization
CYP2C19 = CYP2C19 (Homo sapiens, UniProt P33261); assay: Inhibition of cDNA derived CYP isozymes; type: in vitro ADME; settings: cDNA-derived (recombinant) CYP2C19
c-Kit = biological target: T2, c-Kit (Homo sapiens, UniProt P10721); assay: In vitro RTK kinase assay (TRF or radioactive); type: biochemical; settings: Table 13
T2 construct: Recombinant proteins corresponding to the cytoplasmic domains of the c-Kit and FLT-3 receptors were purchased (Proquinase); purchased Proquinase

[3] = Monkey multiple oral dose experiment, plasma levels; type: in vivo; settings: compound 1 5 mg/kg BID oral, day 1 and 14 samples
OPM-2 cells = settings: Grand et al., Leukemia 2004; cited from earlier work
TF-1 cells = assay: cells; settings: Homo sapiens, TF-1, 72 h
[4] = test system: PC3 human prostate tumor xenografts
ERK (MAPK) = ERK (MAPK) phosphorylation in HCT116 tumors; type: in vivo; settings: dose- and time-dependent
[5] = test system: VEGFR1, VEGFR2, PDGFRβ, and FGFR1; settings: KM12L4a tumors after treatment
[6] = Compound 1 and metabolite levels in rat plasma, 2 week toxicology study; type: in vivo

T2 sequence (P10721 546-976 limits assumed): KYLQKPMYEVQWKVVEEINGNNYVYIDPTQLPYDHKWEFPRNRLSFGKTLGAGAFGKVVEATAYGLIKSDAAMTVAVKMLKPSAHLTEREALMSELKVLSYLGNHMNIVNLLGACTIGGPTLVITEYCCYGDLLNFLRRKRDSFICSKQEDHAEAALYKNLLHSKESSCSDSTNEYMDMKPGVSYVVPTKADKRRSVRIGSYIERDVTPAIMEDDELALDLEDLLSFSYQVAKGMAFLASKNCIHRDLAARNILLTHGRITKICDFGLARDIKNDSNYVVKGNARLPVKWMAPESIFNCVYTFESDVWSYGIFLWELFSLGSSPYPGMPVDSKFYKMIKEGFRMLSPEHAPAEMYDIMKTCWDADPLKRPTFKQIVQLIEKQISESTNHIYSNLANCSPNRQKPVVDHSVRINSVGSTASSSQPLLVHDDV
CYP2C19, sequence (P33261 whole entry): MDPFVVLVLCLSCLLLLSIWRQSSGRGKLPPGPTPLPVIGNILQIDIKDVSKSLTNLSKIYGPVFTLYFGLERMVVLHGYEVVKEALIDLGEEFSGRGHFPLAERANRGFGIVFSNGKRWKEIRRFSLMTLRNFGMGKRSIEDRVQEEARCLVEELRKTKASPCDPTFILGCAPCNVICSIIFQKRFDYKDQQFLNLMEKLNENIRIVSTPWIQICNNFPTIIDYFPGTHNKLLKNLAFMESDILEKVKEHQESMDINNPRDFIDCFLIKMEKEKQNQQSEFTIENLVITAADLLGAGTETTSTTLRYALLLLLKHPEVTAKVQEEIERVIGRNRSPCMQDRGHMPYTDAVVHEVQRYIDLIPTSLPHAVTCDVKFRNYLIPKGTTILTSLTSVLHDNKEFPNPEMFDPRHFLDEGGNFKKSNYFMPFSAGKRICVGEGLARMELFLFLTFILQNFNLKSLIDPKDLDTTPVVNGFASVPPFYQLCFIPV
CYP2D6, sequence (P10635 whole entry): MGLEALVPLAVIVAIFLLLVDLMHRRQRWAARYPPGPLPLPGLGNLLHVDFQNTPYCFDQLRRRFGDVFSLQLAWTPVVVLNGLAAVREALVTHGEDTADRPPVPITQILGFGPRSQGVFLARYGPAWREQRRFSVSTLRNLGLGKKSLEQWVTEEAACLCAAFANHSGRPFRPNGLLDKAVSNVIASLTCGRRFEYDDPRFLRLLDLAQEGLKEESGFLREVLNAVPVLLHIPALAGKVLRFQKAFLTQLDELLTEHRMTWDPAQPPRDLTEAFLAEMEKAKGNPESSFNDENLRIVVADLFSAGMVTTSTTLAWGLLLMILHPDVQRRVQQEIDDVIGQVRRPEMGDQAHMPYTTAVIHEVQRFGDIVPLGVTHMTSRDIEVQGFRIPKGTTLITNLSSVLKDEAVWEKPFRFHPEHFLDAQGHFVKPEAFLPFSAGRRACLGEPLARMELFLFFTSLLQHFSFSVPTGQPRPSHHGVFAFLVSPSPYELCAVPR
CYP3A4, sequence (P08684 whole entry): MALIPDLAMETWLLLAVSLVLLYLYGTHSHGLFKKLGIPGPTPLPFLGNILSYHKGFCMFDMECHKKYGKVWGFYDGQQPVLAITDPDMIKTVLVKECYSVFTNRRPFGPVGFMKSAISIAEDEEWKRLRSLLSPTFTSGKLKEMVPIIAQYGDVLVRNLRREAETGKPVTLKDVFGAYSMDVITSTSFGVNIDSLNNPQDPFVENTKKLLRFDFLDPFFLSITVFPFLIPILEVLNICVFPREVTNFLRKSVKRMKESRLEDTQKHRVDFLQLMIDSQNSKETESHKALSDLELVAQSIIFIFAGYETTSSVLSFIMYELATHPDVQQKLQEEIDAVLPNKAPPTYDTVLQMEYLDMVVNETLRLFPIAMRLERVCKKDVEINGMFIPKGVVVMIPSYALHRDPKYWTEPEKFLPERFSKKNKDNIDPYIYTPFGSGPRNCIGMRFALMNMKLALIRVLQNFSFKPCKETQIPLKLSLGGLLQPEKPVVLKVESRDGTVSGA
CYP2C9, sequence (P11712 whole entry): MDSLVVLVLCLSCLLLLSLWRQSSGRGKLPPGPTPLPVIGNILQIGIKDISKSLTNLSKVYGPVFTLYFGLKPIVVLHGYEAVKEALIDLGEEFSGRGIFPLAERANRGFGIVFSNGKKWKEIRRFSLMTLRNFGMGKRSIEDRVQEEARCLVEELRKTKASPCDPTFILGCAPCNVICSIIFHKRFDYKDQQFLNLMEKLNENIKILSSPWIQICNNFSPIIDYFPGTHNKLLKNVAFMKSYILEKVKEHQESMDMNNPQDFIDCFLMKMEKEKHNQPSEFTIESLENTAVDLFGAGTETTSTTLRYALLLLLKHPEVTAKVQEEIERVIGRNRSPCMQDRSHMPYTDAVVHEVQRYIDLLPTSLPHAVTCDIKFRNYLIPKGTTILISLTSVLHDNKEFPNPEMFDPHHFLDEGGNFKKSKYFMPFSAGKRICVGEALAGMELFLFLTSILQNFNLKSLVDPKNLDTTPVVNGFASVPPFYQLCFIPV

In the case of `CN1CCN(c2ccc3[nH]c(-c4c(N)c5c(F)cccc5[nH]c4=O)nc3c2)CC1` [Example 166], the EC50 [1] is reported as under 10 µM.

`CN1CCN(c2ccc3nc(-c4c(N)c5c(F)cccc5[nH]c4=O)[nH]c3c2)CC1` gave an IC50 (CYP2C9) of over 25 µM, an IC50 (CYP1A2) of over 25 µM and an IC50 (CYP3A4) of over 25 µM. For the same compound, the IC50 (CYP2D6) was over 25 µM, the tolerability ([2]; mouse, in vivo) was “well tolerated” and the IC50 (CYP2C19) was over 25 µM.

In the case of `C[N+]1([O-])CCN(c2ccc3nc(-c4c(N)c5c(F)cccc5[nH]c4=O)[nH]c3c2)CC1` [Compound 2, 4-Amino-5-fluoro-3-[5-(4-methyl-4-oxidopiperazin-1-yl)-1H-benzimidazol-2-yl]quinolin-2(1H)-one], the IC50 (c-Kit) is reported as 0.0002 µM and the “presence of the N-oxide metabolite in monkey plasma” value [3] is reported as “not detected”.

In the case of `CCN(CC)CCCCNc1ncc2cc(-c3cc(OC)cc(OC)c3)c(NC(=O)NC(C)(C)C)nc2n1` [PD173074], the “cytotoxic response / apoptosis in OPM2 cells” value (OPM-2 cells) is given as “failed to induce apoptosis”.

In the case of `CN1CCN(c2ccc3nc(-c4c(N)c5c(F)cccc5[nH]c4=O)[nH]c3c2)CC1` [Compound 1], the EC50 (TF-1 cells) is reported as at most 0.05 µM, the “% TGI vs. vehicle” value ([4]; 100 mpk q 2 days) is reported as 75% and the “% TGI vs. vehicle” value ([4]; 100 mpk q 3 days) is reported as 68%. The “% TGI vs. vehicle” value ([4]; 100 mpk q 4 days) was 66%, the “% TGI vs. vehicle” value ([4]; 100 mpk qd, days 1-11) was 60% and the “phosphorylation of ERK (MAPK)” value (ERK (MAPK)) was “inhibited”. For the same compound, the “% Hb inhibition vs. Vehicle treatment of Matrigel + FGF” value (shortened to “% Hb inhibition vs. Vehicle treatment”) ([2]; 30 mg/kg) was 71%, the “% Hb inhibition vs. Vehicle treatment” value ([2]; 200 mg/kg) was 89% and the “% Hb inhibition vs. Vehicle treatment” value ([2]; 300 mg/kg) was 91%. For the same compound, the “inhibition vs. FGF-supplemented controls” value ([2]; range over 30, 100, 200 and 300 mg/kg) was 70-92% and the “phosphorylation of VEGFR1, VEGFR2, PDGFRβ, and FGFR1” value [5] was “inhibited in a time- and dose-dependent manner”.

In the case of `Nc1c(-c2nc3ccc(N4CCNCC4)cc3[nH]2)c(=O)[nH]c2cccc(F)c12` [Compound 3, 4-Amino-5-fluoro-3-(5-piperazin-1-yl-1H-benzimidazol-2-yl)quinolin-2(1H)-one], the IC50 (c-Kit) is reported as 0.0002 µM, the “Des-CH3 (ng/ml), estimated from UV” value ([6]; compound 1 30 mg/kg PO, Day 14, 1-2 hr) is reported as 6 ng/mL and the “Des-CH3 (ng/ml), estimated from UV” value ([6]; compound 1 30 mg/kg PO, Day 14, 4-8 hr) is reported as 12 ng/mL. The “Des-CH3 (ng/ml), estimated from UV” value ([6]; compound 1 100 mg/kg PO, Day 1, 1-2 hr) was 35 ng/mL and the “Des-CH3 (ng/ml), estimated from UV” value ([6]; compound 1 100 mg/kg PO, Day 1, 4-8 hr) was 84 ng/mL.
